Laboratory results as given in US8299048B2, “Hexahydrocyclopentyl[f]indazole sulfonamides and derivatives thereof as selective glucocorticoid receptor modulators” (Merck Sharp & Dohme Corp., priority 2008, dated 2012).
Read-outs that look alike come from different tables or passages of the source.

Target: T1, human GR (Homo sapiens, UniProt P04150)
T1 sequence (P04150 1-777): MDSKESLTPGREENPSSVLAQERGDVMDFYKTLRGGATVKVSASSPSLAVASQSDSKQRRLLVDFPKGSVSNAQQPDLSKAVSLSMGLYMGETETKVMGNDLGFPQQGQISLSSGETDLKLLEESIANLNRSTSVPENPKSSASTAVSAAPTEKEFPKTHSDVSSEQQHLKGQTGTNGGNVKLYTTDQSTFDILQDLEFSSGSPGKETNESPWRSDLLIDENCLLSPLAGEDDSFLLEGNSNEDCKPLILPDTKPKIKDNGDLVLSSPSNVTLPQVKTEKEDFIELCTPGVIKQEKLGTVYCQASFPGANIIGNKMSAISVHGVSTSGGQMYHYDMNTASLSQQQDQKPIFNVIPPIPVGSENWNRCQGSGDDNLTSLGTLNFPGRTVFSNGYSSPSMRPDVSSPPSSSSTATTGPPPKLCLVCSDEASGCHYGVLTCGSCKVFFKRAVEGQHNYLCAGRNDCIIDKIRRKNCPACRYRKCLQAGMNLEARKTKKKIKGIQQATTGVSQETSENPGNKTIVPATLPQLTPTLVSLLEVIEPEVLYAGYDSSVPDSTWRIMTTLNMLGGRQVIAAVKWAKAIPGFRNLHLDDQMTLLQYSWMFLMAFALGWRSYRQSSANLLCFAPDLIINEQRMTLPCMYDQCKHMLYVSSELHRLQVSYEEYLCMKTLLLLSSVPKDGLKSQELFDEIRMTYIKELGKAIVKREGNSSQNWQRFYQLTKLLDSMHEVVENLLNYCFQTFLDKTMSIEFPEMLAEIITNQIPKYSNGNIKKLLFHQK
Test: Transrepression Assay (GITAR), TNFα-β-lactamase reporter in U937 cells
Type: cell-based
Set-up: U937 cells contain an endogenous glucocorticoid receptor (GR); endogenous in cells; host or cells: U937 cells stably transfected with the TNF-alpha promoter/beta-lactamase reporter
Conditions: for GITAR > GRAMM % SEP: GITAR Emax minus GRAMMER Emax; for EC50: U937 cells, inflection point, read-out: Transrepression U937 Cells GITAR IP
Procedure, shortened: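 U937 cells stably carrying a TNF-α promoter–β-lactamase reporter, with endogenous GR, are preincubated with compound 30–45 min at 37 °C, then stimulated with PMA (5 ng/ml final) and LPS (100 ng/ml final) overnight (~18 hr). β-Lactamase is read with CCF2-AM substrate; repression by 100 nM dexamethasone defines 100%.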

[1] = U-937, U937 cells, maximum activity, read-out: Transrepression U937 Cells GITAR Emax
[2] = U-937, activity repressed by 100 nM dexamethasone alone set as 100%, read-out: maximal activity in the transrepression (GITAR) assay

## Cc1ccccc1S(=O)(=O)N(CCO)C[C@H]1CCC2=Cc3c(cnn3-c3ccc(F)cc3)C[C@@]21C [Example 77, N-{[(4αR,5S)-1-(4-fluorophenyl)-4α-methyl-1,4,4α,5,6,7-hexahydrocyclopenta[f]indazol-5-yl]methyl}-N-(2-hydroxyethyl)-2-methylbenzenesulfonamide]
  GITAR > GRAMM % SEP: 25.7%
  EC50: 1130 nM
[1]
  Emax: 43.6%
[2]
  Emax: > 5%

## C[C@]12Cc3cnn(-c4ccc(F)cc4)c3C=C1CC[C@@H]2CN(CCO)S(=O)(=O)c1ccccc1C#N [Example 78, 2-cyano-N-{[(4αR,5S)-1-(4-fluorophenyl)-4α-methyl-1,4,4α,5,6,7-hexahydrocyclopenta[f]indazol-5-yl]methyl}-N-(2-hydroxyethyl)benzenesulfonamide]
  GITAR > GRAMM % SEP: 15.9%
  EC50: 883 nM
[1]
  Emax: 66.5%
[2]
  Emax: > 5%

## C[C@]12Cc3cnn(-c4ccc(F)cc4)c3C=C1CC[C@@H]2CN(CCO)S(=O)(=O)c1ccc(Oc2ccccc2)cc1 [Example 79, N-{[(4αR,5S)-1-(4-fluorophenyl)-4α-methyl-1,4,4α,5,6,7-hexahydrocyclopenta[f]indazol-5-yl]methyl}-N-(2-hydroxyethyl)-4-phenoxybenzenesulfonamide]
  GITAR > GRAMM % SEP: 64.3%
  EC50: 1950 nM
[1]
  Emax: 71.8%
[2]
  Emax: > 5%

## C[C@]12Cc3cnn(-c4ccc(F)cc4)c3C=C1CC[C@@H]2CN(CCO)S(=O)(=O)c1cc(C(F)(F)F)ccc1Cl [Example 80, 2-chloro-N-{[(4αR,5S)-1-(4-fluorophenyl)-4α-methyl-1,4,4α,5,6,7-hexahydrocyclopenta[f]indazol-5-yl]methyl}-N-(2-hydroxyethyl)-5-(trifluoromethyl)benzenesulfonamide]
  GITAR > GRAMM % SEP: 64.0%
  EC50: 2580 nM
[1]
  Emax: 70%
[2]
  Emax: > 5%

## C[C@]12Cc3cnn(-c4ccc(F)cc4)c3C=C1CC[C@@H]2CN(CCO)S(=O)(=O)c1ccccc1Cl [Example 81, 2-chloro-N-{[(4αR,5S)-1-(4-fluorophenyl)-4α-methyl-1,4,4α,5,6,7-hexahydrocyclopenta[f]indazol-5-yl]methyl}-N-(2-hydroxyethyl)benzenesulfonamide]
  GITAR > GRAMM % SEP: 59.5%
  EC50: 959 nM
[1]
  Emax: 76.7%
[2]
  Emax: > 5%

## C[C@]12Cc3cnn(-c4ccc(F)cc4)c3C=C1CC[C@@H]2CN(CCO)S(=O)(=O)c1ccc(F)cc1F [Example 82, 2,4-difluoro-N-{[(4αR,5S)-1-(4-fluorophenyl)-4α-methyl-1,4,4α,5,6,7-hexahydrocyclopenta[f]indazol-5-yl]methyl}-N-(2-hydroxyethyl)benzenesulfonamide]
  GITAR > GRAMM % SEP: 29.1%
  EC50: 220 nM
[1]
  Emax: 90.2%
[2]
  Emax: > 5%

## Cc1nn(C)c(Cl)c1S(=O)(=O)N(CCO)C[C@H]1CCC2=Cc3c(cnn3-c3ccc(F)cc3)C[C@@]21C [Example 83, 5-chloro-N-{[(4αR,5S)-1-(4-fluorophenyl)-4α-methyl-1,4,4α,5,6,7-hexahydrocyclopenta[f]indazol-5-yl]methyl}-N-(2-hydroxyethyl)-1,3-dimethyl-1H-pyrazole-4-sulfonamide]
  GITAR > GRAMM % SEP: 52.6%
  EC50: 1320 nM
[1]
  Emax: 59.5%
[2]
  Emax: > 5%

## C[C@]12Cc3cnn(-c4ccc(F)cc4)c3C=C1CC[C@@H]2CN(CCO)S(=O)(=O)c1ccccc1-c1ccccc1 [Example 84, N-{[(4αR,5S)-1-(4-fluorophenyl)-4α-methyl-1,4,4α,5,6,7-hexahydrocyclopenta[f]indazol-5-yl]methyl}-N-(2-hydroxyethyl)biphenyl-2-sulfonamide]
  GITAR > GRAMM % SEP: 66.3%
  EC50: 799 nM
[1]
  Emax: 86%
[2]
  Emax: > 5%

## CC(=O)Nc1ccc(S(=O)(=O)N(CCO)C[C@H]2CCC3=Cc4c(cnn4-c4ccc(F)cc4)C[C@@]32C)cc1 [Example 85, N-(4-{[{[(4αR,5S)-1-(4-fluorophenyl)-4α-methyl-1,4,4α,5,6,7-hexahydrocyclopenta[f]indazol-5-yl]methyl}(2-hydroxyethyl)amino]sulfonyl}phenyl)acetamide]
  GITAR > GRAMM % SEP: 37.1%
  EC50: 4230 nM
[1]
  Emax: 38.8%
[2]
  Emax: > 5%

## C[C@]12Cc3cnn(-c4ccc(F)cc4)c3C=C1CC[C@@H]2CN(CCc1ccccc1F)S(=O)(=O)c1ccccc1F [Example 86, 2-fluoro-N-[2-(2-fluorophenyl)ethyl]-N-{[(4αR,5S)-1-(4-fluorophenyl)-4α-methyl-1,4,4α,5,6,7-hexahydrocyclopenta[f]indazol-5-yl]methyl}benzenesulfonamide]
  GITAR > GRAMM % SEP: 12.4%
  EC50: 262 nM
[1]
  Emax: 80.6%
[2]
  Emax: > 5%

## CCCS(=O)(=O)N(CCc1ccccc1F)C[C@H]1CCC2=Cc3c(cnn3-c3ccc(F)cc3)C[C@@]21C [Example 87, N-[2-(2-fluorophenyl)ethyl]-N-{[(4αR,5S)-1-(4-fluorophenyl)-4α-methyl-1,4,4α,5,6,7-hexahydrocyclopenta[f]indazol-5-yl]methyl}propane-1-sulfonamide]
  GITAR > GRAMM % SEP: 20.0%
  EC50: 212 nM
[1]
  Emax: 85.1%
[2]
  Emax: > 5%

## C[C@]12Cc3cnn(-c4ccc(F)cc4)c3C=C1CC[C@@H]2CN(CCc1ccccc1F)S(=O)(=O)Cc1cccc(C(F)(F)F)c1 [Example 88, N-[2-(2-fluorophenyl)ethyl]-N-{[(4αR,5S)-1-(4-fluorophenyl)-4α-methyl-1,4,4α,5,6,7-hexahydrocyclopenta[f]indazol-5-yl]methyl}-1-[3-(trifluoromethyl)phenyl]methanesulfonamide]
  GITAR > GRAMM % SEP: 32.4%
  EC50: 646 nM
[1]
  Emax: 57.7%
[2]
  Emax: > 5%

## C[C@]12Cc3cnn(-c4ccc(F)cc4)c3C=C1CC[C@@H]2CN(CCc1ccccc1F)S(=O)(=O)CC(F)(F)F [Example 89, 2,2,2-trifluoro-N-[2-(2-fluorophenyl)ethyl]-N-{[(4αR,5S)-1-(4-fluorophenyl)-4α-methyl-1,4,4α,5,6,7-hexahydrocyclopenta[f]indazol-5-yl]methyl}ethanesulfonamide]
  GITAR > GRAMM % SEP: 14.3%
  EC50: 138 nM
[1]
  Emax: 95.6%
[2]
  Emax: > 5%

## COc1ccccc1CCN(C[C@H]1CCC2=Cc3c(cnn3-c3ccc(F)cc3)C[C@@]21C)S(=O)(=O)c1ccccc1F [Example 90, 2-fluoro-N-{[(4αR,5S)-1-(4-fluorophenyl)-4α-methyl-1,4,4α,5,6,7-hexahydrocyclopenta[f]indazol-5-yl]methyl}-N-[2-(2-methoxyphenyl)ethyl]benzenesulfonamide]
  GITAR > GRAMM % SEP: 34.0%
  EC50: 651 nM
[1]
  Emax: 67.6%
[2]
  Emax: > 5%

## Cc1ccc(CCN(C[C@H]2CCC3=Cc4c(cnn4-c4ccc(F)cc4)C[C@@]32C)S(=O)(=O)c2ccccc2F)cc1 [Example 91, 2-fluoro-N-{[(4αR,5S)-1-(4-fluorophenyl)-4α-methyl-1,4,4α,5,6,7-hexahydrocyclopenta[f]indazol-5-yl]methyl}-N-[2-(4-methylphenyl)ethyl]benzenesulfonamide]
  GITAR > GRAMM % SEP: 50.8%
  EC50: 973 nM
[1]
  Emax: 61.5%
[2]
  Emax: > 5%

## C[C@]12Cc3cnn(-c4ccc(F)cc4)c3C=C1CC[C@@H]2CN(CCc1ccccc1Cl)S(=O)(=O)c1ccccc1F [Example 92, N-[2-(2-chlorophenyl)ethyl]-2-fluoro-N-{[(4αR,5S)-1-(4-fluorophenyl)-4α-methyl-1,4,4α,5,6,7-hexahydrocyclopenta[f]indazol-5-yl]methyl}benzenesulfonamide]
  GITAR > GRAMM % SEP: 26.9%
  EC50: 493 nM
[1]
  Emax: 68.5%
[2]
  Emax: > 5%

## CC(C1CCC2=Cc3c(cnn3-c3ccc(F)cc3)C[C@@]21C)N(CCc1ccccc1F)S(=O)(=O)CC(F)(F)F (stereo partly drawn) [Example 93, 2,2,2-trifluoro-N-[2-(2-fluorophenyl)ethyl]-N-{1-[(4αR)-1-(4-fluorophenyl)-4α-methyl-1,4,4α,5,6,7-hexahydrocyclopenta[f]indazol-5-yl]ethyl}ethanesulfonamide]
  GITAR > GRAMM % SEP: 20.8%
  EC50: 231 nM
[1]
  Emax: 71.8%
[2]
  Emax: > 5%

## COCCN(C[C@H]1CCC2=Cc3c(cnn3-c3ccc(F)cc3)C[C@@]21C)S(=O)(=O)c1ccccc1F [Example 94, 2-fluoro-N-{[(4αR,5S)-1-(4-fluorophenyl)-4α-methyl-1,4,4α,5,6,7-hexahydrocyclopenta[f]indazol-5-yl]methyl}-N-(2-methoxyethyl)benzenesulfonamide]
  GITAR > GRAMM % SEP: 31.6%
  EC50: 412 nM
[1]
  Emax: 75.5%
[2]
  Emax: > 5%
